Target: T1, Jak1 (Homo sapiens, UniProt P23458)
T1 construct: endogenous in cells; host or cells: TF1 cells
Assay: Jak1 (PSTAT3 TF1) alpha screen assay: inhibition of IL-6 induced phosphorylation of STAT3 in TF1 cells
Type: cell-based
Conditions: for EC50: IL-6 induced pSTAT3, TF1 cells; for Tyk2 selectivity over Jak1: calculated from tabulated EC50 data (Jak1 / Tyk2)
Method in brief: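 IL-6-starved TF1 cells were preincubated 30 min at 37 °C with compound (top final 25 μM, 8-point 1:5 series), then stimulated with IL-6 (100 ng/mL final) for 30 min at 37 °C. Lysates were read for pSTAT3 (Tyr705) by AlphaScreen SureFire. EC50 from percent-activity dose-response curves.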

T1 sequence (P23458 whole entry): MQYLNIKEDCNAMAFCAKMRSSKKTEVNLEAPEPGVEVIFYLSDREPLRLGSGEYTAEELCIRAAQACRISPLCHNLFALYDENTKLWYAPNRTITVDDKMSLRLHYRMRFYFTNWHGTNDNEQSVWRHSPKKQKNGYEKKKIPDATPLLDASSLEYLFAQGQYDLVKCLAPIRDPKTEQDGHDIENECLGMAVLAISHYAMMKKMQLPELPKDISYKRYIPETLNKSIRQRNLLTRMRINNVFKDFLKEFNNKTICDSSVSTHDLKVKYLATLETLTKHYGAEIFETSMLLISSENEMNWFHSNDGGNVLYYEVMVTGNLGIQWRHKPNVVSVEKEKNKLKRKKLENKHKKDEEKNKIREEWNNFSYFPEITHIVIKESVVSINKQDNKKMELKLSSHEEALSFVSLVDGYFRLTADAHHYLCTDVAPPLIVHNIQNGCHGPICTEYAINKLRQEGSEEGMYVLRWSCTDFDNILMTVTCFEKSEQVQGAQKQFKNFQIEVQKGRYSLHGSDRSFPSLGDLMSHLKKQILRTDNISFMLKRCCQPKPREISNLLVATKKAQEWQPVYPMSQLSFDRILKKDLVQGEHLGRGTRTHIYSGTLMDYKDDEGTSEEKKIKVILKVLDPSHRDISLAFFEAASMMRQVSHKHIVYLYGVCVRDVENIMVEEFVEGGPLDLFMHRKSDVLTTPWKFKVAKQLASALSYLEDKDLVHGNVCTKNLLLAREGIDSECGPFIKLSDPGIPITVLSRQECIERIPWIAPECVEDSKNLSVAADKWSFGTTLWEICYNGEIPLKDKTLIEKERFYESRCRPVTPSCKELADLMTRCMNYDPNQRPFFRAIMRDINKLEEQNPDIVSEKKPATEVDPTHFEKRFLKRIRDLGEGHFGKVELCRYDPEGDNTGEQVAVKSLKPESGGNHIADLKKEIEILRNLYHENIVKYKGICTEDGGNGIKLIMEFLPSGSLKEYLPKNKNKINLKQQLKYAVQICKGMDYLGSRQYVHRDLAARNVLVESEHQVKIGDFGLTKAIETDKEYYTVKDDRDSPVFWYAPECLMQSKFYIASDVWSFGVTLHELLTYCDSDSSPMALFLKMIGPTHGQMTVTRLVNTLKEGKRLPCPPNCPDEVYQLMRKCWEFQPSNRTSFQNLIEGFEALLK

Compound	EC50	Tyk2 selectivity over Jak1
COCc1cc(-c2cn(C)c3cnc(NC(C)=O)cc23)nc([C@]2([C@H](C)O)CCOC2)c1 [Example 22.3, N-(3-(6-((R)-3-((S)-1-hydroxyethyl)tetrahydrofuran-3-yl)-4-(methoxymethyl)pyridin-2-yl)-1-methyl-1H-pyrrolo[2,3-c]pyridin-5-yl)acetamide]	12.9 µM	88-fold
COCc1cc(-c2cn(C)c3cnc(NC(C)=O)cc23)nc([C@]2([C@@H](C)O)CCOC2)c1 [Example 22.4, N-(3-(6-((R)-3-((R)-1-hydroxyethyl)tetrahydrofuran-3-yl)-4-(methoxymethyl)pyridin-2-yl)-1-methyl-1H-pyrrolo[2,3-c]pyridin-5-yl)acetamide]	27.2 µM	243-fold
